Among the data in patent US9932325B2 (Denali Therapeutics Inc., priority 2015, dated 2018) are IC50 values, retold here.

The target of the assay is LRRK2 G2019S enzyme (Homo sapiens (Human), UniProt Q5S007, G2019S). Nature of the assay: LRRK2 G2019S TR-FRET biochemical assay (LRRKtide substrate). Particulars: 134 μM ATP. The protocol:
Detection Reaction Conditions • 1× TR-FRET dilution buffer • 10 mM EDTA • 2 nM antibody • 23° C. reaction temperature • 10 μL total reaction volume
Compounds were prepared by initially diluting to 1 mM with DMSO. 35 μL of reference compound solution, 35 μL of test compound solution, and 35 μL HPE were successively added to the source plate (384-well assay plate, Labcyte). The plates were centrifuged at 2500 rpm for 1 minute and sealed in foil. […] The assay plate was centrifuged at 2500 rpm for 1 minute, and sealed with foil.
To perform the enzyme reaction, 5 μL of LRRKtide substrate and kinase mixture in assay buffer was added to all wells of the assay plate. The plate was centrifuged to concentrate the mixture at the bottom of the wells. The assay plate was incubated at 23° C. for 20 minutes. Following incubation, 5 μL of 2× ATP in assay buffer was added to each well, and plates were centrifuged to concentrate the mixture at the bottom of the wells. The plate was incubated at 23° C. for 60 minutes.
To perform the detection of the reaction, EDTA completely mixed in TR-FRET dilution buffer was added to antibody reagent. 10 μL of detection reagent was added to all wells of each well of the assay plate and the plate was centrifuged to concentrate the mixture at the bottom of the wells. The plate was then incubated at 23° C. for 60 minutes.
(Time-resolved FRET reads energy transfer from a long-lived donor to a nearby acceptor.)

Each structure is given as a SMILES string.

Sequence of LRRK2 G2019S enzyme (Q5S007 whole entry G2019S): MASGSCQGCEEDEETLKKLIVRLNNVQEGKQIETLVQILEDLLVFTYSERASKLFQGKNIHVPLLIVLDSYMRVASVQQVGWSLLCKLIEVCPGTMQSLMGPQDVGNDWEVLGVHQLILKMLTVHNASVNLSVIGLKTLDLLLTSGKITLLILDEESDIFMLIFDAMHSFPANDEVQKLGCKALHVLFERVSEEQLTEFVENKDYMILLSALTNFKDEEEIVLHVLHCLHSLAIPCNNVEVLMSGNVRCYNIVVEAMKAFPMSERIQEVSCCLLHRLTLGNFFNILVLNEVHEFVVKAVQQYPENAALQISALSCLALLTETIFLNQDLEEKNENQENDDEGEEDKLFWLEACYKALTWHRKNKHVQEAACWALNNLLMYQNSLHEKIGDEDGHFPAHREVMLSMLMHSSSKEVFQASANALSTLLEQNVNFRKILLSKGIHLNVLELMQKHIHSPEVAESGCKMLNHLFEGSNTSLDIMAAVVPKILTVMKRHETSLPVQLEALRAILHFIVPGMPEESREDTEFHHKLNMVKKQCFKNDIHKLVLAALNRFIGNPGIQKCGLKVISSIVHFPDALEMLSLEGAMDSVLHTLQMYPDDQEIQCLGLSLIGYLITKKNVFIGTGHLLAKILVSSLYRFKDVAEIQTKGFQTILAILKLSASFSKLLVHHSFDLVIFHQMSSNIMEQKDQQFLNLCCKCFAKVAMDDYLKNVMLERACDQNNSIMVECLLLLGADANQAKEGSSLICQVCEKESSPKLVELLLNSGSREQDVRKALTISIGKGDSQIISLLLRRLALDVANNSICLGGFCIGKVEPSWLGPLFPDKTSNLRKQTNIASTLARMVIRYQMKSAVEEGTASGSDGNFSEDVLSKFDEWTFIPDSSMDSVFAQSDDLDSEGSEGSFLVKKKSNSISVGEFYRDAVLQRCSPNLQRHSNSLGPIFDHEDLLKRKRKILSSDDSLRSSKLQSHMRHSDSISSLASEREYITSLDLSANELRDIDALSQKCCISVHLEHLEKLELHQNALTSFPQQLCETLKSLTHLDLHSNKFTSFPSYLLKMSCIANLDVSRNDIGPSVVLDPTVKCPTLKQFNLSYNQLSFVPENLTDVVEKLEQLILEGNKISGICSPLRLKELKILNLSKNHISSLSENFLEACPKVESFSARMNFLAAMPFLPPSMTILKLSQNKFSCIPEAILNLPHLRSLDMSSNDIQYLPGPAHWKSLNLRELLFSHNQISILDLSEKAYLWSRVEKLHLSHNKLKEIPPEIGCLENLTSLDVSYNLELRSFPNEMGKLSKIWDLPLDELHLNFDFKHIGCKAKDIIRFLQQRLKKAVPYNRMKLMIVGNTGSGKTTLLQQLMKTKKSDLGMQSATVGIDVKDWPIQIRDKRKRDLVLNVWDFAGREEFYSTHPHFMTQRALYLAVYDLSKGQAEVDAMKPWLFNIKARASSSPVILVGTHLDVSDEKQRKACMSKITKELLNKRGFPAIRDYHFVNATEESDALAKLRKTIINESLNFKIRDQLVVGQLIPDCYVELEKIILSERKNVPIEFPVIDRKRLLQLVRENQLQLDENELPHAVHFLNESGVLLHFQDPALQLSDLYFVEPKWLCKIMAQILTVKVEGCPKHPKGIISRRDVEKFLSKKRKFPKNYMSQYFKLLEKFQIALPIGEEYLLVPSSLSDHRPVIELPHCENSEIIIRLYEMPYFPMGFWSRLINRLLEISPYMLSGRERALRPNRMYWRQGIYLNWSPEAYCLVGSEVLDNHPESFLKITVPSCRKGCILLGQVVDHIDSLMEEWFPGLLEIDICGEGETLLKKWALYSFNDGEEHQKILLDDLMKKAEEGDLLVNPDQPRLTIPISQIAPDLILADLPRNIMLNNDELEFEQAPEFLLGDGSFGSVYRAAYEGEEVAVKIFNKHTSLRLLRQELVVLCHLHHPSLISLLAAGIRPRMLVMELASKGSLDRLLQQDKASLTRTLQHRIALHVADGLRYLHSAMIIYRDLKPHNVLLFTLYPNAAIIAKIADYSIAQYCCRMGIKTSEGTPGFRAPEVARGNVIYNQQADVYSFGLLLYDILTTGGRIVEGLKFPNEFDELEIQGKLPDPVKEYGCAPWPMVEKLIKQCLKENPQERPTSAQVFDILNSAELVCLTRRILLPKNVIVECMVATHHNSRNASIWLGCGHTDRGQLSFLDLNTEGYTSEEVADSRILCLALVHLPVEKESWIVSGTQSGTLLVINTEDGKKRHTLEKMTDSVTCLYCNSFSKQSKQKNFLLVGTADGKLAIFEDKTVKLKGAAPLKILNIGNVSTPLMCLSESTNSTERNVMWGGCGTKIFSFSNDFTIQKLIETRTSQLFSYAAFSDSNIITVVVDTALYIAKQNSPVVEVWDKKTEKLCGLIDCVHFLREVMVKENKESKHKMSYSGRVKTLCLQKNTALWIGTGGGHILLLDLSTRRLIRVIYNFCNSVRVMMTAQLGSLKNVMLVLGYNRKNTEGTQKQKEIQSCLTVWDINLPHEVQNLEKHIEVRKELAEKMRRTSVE

What is called IC50 is the concentration that gives 50% inhibition. Low readings indicate higher potency, high ones lower potency. Turning to `COc1nc(Nc2cn(C3(C)CCOC3=O)nc2C)ncc1Br` (single isomer, unassigned) [Compound 102], the concentration for half-maximal inhibition (IC50) is less than 30 nM. As for `CCNc1nc(Nc2cnn3c2CC2(COC2)C3)ncc1C(F)(F)F` [Compound 20], the figure is less than 30 nM; as for `[2H]C([2H])([2H])N1CCC(n2cc(Nc3ncc(C(F)(F)F)c(NCC)n3)c(C)n2)(C([2H])([2H])[2H])C1=O` (centres unmarked) [Compound 22], less than 30 nM; as for `Cc1nn(C(C)(C)C#N)cc1Nc1ncc(C(F)(F)F)c(NC2(C)CC2)n1` [Compound 84], less than 30 nM. For `CNc1nc(Nc2cnn(C3CC4CCC(C3)N4C)c2C)ncc1C(F)(F)F` (centres unmarked) [Compound 1] the value was less than 30 nM; for `[2H]C([2H])([2H])C([2H])([2H])Nc1nc(Nc2cn(C(C)(C)C#N)nc2C)ncc1C(F)(F)F` [Compound 89], less than 30 nM; for `CCNc1nc(Nc2cnn3c2CC(F)C3)ncc1C(F)(F)F` (centres unmarked) [Compound 50], less than 30 nM. For `CCNc1nc(Nc2ccnn2[C@H]2C[C@H](F)C2)ncc1C(F)(F)F` [Compound 190] the value was less than 30 nM.

`CCNc1nc(Nc2cnn(C3CN(CC)CCC3(F)F)c2Cl)ncc1C(F)(F)F` (single isomer, unassigned) [Compound 204] displayed an IC50 of less than 30 nM. For the compound `CCNc1nc(Nc2cn(C3C[C@@H]3C#N)nc2C2CC2)ncc1Br` (single isomer, unassigned) [Compound 214], the IC50 is less than 30 nM. Compound `[2H]C([2H])([2H])n1nc(C(C)(C)n2nccn2)cc1Nc1ncc(Br)c(OC2CC2)n1` [Compound 81] had an IC50 of less than 30 nM. As for `CCNc1nc(Nc2cnn(C3CNCCC3(F)F)c2C)ncc1C(F)(F)F` (single isomer, unassigned) [Compound 200], the figure is less than 30 nM; as for `CNc1nc(Nc2cc(C3(C)CCn4ccnc43)nn2C2CC2)ncc1C(F)(F)F` (centres unmarked) [Compound 178], less than 30 nM; as for `CCNc1nc(Nc2cc([C@]34C[C@H]3COC4=O)nn2C2CC2)ncc1C(F)(F)F` [Compound 165], less than 30 nM. As for `[2H]C([2H])([2H])N1CCC(n2cc(Nc3ncc(C(F)(F)F)c(NCC)n3)c(C)n2)(C([2H])([2H])[2H])C1=O` (single isomer, unassigned) [Compound 23], the IC50 is less than 30 nM. Compound `CCNc1nc(Nc2cnn(C3CCCN(CC(F)F)C3)c2C)ncc1C(F)(F)F` (single isomer, unassigned) [Compound 116] returned an IC50 of less than 30 nM. For `CCNc1nc(Nc2cc(C3(C)CCC(=O)N3)nn2C2CC2)ncc1C(F)(F)F` (centres unmarked) [Compound 136] the value was 30 to 60 nM; for `COc1nc(Nc2cc(C(C)(C)n3nccn3)nn2C2CC2)ncc1Br` [Compound 157], 30 to 60 nM.

Regarding `CCNc1nc(Nc2cnn([C@H]3C[C@H](n4nccn4)C3)c2C2CC2)ncc1C(F)(F)F` [Compound 97], the IC50 is less than 30 nM. For `CCNc1nc(Nc2ccnn2[C@H]2C[C@@H](O)C2)ncc1C(F)(F)F` [Compound 179] the value was less than 30 nM; for `CCNc1nc(Nc2cn(C(C)(C)c3nncs3)nc2C)ncc1C(F)(F)F` [Compound 85], less than 30 nM; for `CNc1nc(Nc2cnn(CC34CC(C#N)(C3)C4)c2C)ncc1C(F)(F)F` [Compound 7], less than 30 nM. With `[2H]C([2H])([2H])n1nc(C2(C)CCOC2=O)cc1Nc1ncc(C(F)(F)F)c(NCC)n1` (centres unmarked) [Compound 174], the IC50 is less than 30 nM. For `CNc1nc(Nc2c[nH]nc2C)ncc1C(F)(F)F` [Compound 109] the value was less than 30 nM; for `CCNc1nc(Nc2cc(C(C)=O)nn2C2CC2)ncc1C(F)(F)F` [Compound 135], more than 60 nM. As for `Cc1nn(C(C)(C)C#N)cc1Nc1ncc(Cl)c(OC2CC2)n1` [Compound 60], the figure is less than 30 nM.

As to `CNc1nc(Nc2cn(C3C[C@H]3C#N)nc2C2CC2)ncc1C(F)(F)F` (single isomer, unassigned) [Compound 209], the IC50 was less than 30 nM.

`[2H]C([2H])([2H])c1nn(C(C#N)(C([2H])([2H])[2H])C([2H])([2H])[2H])cc1Nc1ncc(C(F)(F)F)c(NCC(F)F)n1` [Compound 46] showed an IC50 of less than 30 nM.

With `CNc1nc(Nc2cn(C3CC4CCC(C3)N4C)nc2C)ncc1C(F)(F)F` (centres unmarked) [Compound 2], the IC50 is more than 60 nM.

`CNc1nc(Nc2cn(C3(C)CCOC3=O)nc2C2CC2)ncc1C(F)(F)F` (single isomer, unassigned) [Compound 113] displayed an IC50 of less than 30 nM.

`N#C[C@@H]1CC1n1cc(Nc2ncc(C(F)(F)F)c(NCC(F)F)n2)c(C2CC2)n1` (single isomer, unassigned) [Compound 210]: the IC50 is less than 30 nM. As for `CNc1nc(Nc2cnn(C3C[C@@H]4C[C@@H]4C3)c2C)ncc1C(F)(F)F` (some centres unmarked) [Compound 4], the figure is less than 30 nM; as for `CCNc1nc(Nc2cn(C3(C)CCOC3=O)nc2C2CC2)ncc1C(F)(F)F` (centres unmarked) [Compound 108], less than 30 nM; as for `Cc1nn(C(C)(C)C#N)cc1Nc1ncc(C(F)(F)F)c(NC2C3CC2C3)n1` (centres unmarked) [Compound 5], less than 30 nM. For `CNc1nc(Nc2cn(C3CC3)nc2[C@H]2C[C@H](n3nccn3)C2)ncc1C(F)(F)F` [Compound 198] the value was less than 30 nM; for `CNc1nc(Nc2cn(C3(C)CCOC3=O)nc2C)ncc1C(F)(F)F` (single isomer, unassigned) [Compound 124], less than 30 nM; for `CCNc1nc(Nc2cc(C3(C)COC3)nn2C2CC2)ncc1Br` [Compound 148], less than 30 nM. For `[2H]C([2H])([2H])n1nc(C2(C)CCOC2=O)cc1Nc1ncc(C(F)(F)F)c(NCC)n1` (centres unmarked) [Compound 173] the value was less than 30 nM; for `CCNc1nc(Nc2cc(C(C)(C)n3nccn3)nn2CC)ncc1C(F)(F)F` [Compound 129], less than 30 nM. In turn, `Cc1nn(C(C)(C)C#N)cc1Nc1ncc(C(F)(F)F)c(N[C@H]2C[C@H]2F)n1` [Compound 39A] registered an IC50 of less than 30 nM. For `CNc1nc(Nc2cn(C3(C)CCOC3=O)nc2Cl)ncc1C(F)(F)F` (single isomer, unassigned) [Compound 99] the value was less than 30 nM; for `[2H]C([2H])([2H])c1nn(C(C#N)(C([2H])([2H])[2H])C([2H])([2H])[2H])cc1Nc1ncc(C(F)(F)F)c(NC2CC2)n1` [Compound 48], less than 30 nM.

Take `[2H]C([2H])([2H])N1CCC(n2cc(Nc3ncc(C(F)(F)F)c(NCC)n3)c(C)n2)(C([2H])([2H])[2H])C1=O` (single isomer, unassigned) [Compound 24]: the IC50 was less than 30 nM.

`CCNc1nc(Nc2cn(C3(C)CCOC3=O)nc2C2CC2)ncc1Br` (single isomer, unassigned) [Compound 115]: the IC50 was less than 30 nM. For `CCNc1nc(Nc2cn(S(C)(=O)=O)nc2C2CC2)ncc1Br` [Compound 111] the value was less than 30 nM. As for `CNc1nc(Nc2cn(C3C[C@@H]4[C@H](C3)C4(F)F)nc2C)ncc1C(F)(F)F` (some centres unmarked) [Compound 12], the figure is less than 30 nM; as for `[2H]C([2H])([2H])n1nc([C@@]23C[C@@H]2COC3=O)cc1Nc1ncc(C(F)(F)F)c(NCC)n1` [Compound 184], less than 30 nM. As for `Cc1c(Nc2ncc(C(F)(F)F)c(NC3CC3)n2)cnn1[C@H]1C[C@H](C#N)C1` [Compound 21], the figure is less than 30 nM. The compound `CCNc1nc(Nc2cn(C3(CF)CCOC3=O)nc2C)ncc1C(F)(F)F` (single isomer, unassigned) [Compound 216] came in with an IC50 of less than 30 nM. As for `CCNc1nc(Nc2ccnn2[C@H]2C[C@H](O)C2)ncc1C(F)(F)F` [Compound 180], the figure is 30 to 60 nM. As for `CCNc1nc(Nc2cc(C(C)(C)OC)nn2C2CCC2)ncc1C(F)(F)F` [Compound 192], the figure is less than 30 nM; as for `[2H]C([2H])([2H])c1nn(C(C#N)(C([2H])([2H])[2H])C([2H])([2H])[2H])cc1Nc1ncc(C(F)(F)F)c(NCC)n1` [Compound 44], less than 30 nM. In turn, `CCNc1nc(Nc2ccnn2[C@H]2C[C@H](n3ccnn3)C2)ncc1C(F)(F)F` [Compound 183, N2-(1-((1R,3R)-3-(1H-1,2,3-triazol-1-yl)cyclobutyl)-1H-pyrazol-5-yl)-N4-ethyl-5-(trifluoromethyl)pyrimidine-2,4-diamine] showed an IC50 of less than 30 nM. As to `CCNc1nc(Nc2cc(C(C)(C)n3nccn3)nn2C2CC2)ncc1Br` [Compound 126], the IC50 is less than 30 nM. For `CCNc1nc(Nc2cc(C(C)(C)S(C)(=O)=O)nn2C2CC2)ncc1Br` [Compound 140] the value was less than 30 nM; for `CNc1nc(Nc2cn(C3C[C@@H]4[C@H](C3)C4(F)F)nc2Cl)ncc1C(F)(F)F` (some centres unmarked) [Compound 10], more than 60 nM; for `CCNc1nc(Nc2cc([C@@]3(C)CCOC3=O)nn2C2CC2)ncc1C(F)(F)F` [Compound 144, (3R)-3-[1-cyclopropyl-5-[[4-(ethylamino)-5-(trifluoromethyl)pyrimidin-2-yl]amino]pyrazol-3-yl]-3-methyl-tetrahydrofuran-2-one], less than 30 nM. For `CCNc1nc(Nc2cn(C3(C)CCCC3=O)nc2C)ncc1C(F)(F)F` (centres unmarked) [Compound 194, 2-[4-[[4-(ethylamino)-5-(trifluoromethyl)pyrimidin-2-yl]amino]-3-methyl-pyrazol-1-yl]-2-methyl-cyclopentanone] the value was less than 30 nM. As for `CNc1nc(Nc2cc(C3(C)CCOC3=O)nn2C2CC2)ncc1C(F)(F)F` (centres unmarked) [Compound 156], the figure is less than 30 nM.
